Among the data in patent US20170137426A1, “HETEROCYCLIC COMPOUNDS AS AXL INHIBITORS” (CHANGZHOU JIEKAI PHARMATECH CO., LTD., priority 2014, published 2017) are IC50 values, retold here.

For orientation: pIC50 means the IC50 on a negative log10 scale, so that one unit is a factor of ten.

pIC50: −log10 of the molar value.

This experiment has as its target T1, human AXL (Homo sapiens, UniProt P30530).
T1 construct: his-tagged catalytic domain (amino acids 473-894) from insect cells; His tag; purchased Invitrogen PV3971; host or cells: insect cells
T1 sequence (P30530 473-894): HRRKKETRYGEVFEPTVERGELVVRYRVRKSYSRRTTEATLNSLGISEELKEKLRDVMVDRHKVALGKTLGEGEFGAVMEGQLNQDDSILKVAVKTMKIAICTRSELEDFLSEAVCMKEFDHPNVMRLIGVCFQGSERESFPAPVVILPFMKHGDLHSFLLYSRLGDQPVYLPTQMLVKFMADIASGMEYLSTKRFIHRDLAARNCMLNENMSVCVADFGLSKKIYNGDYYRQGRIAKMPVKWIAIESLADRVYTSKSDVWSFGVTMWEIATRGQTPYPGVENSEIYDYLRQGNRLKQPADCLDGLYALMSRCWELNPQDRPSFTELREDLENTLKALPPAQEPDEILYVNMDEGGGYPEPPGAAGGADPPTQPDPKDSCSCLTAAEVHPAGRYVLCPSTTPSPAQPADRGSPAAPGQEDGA
The experiment can be described thus: AXL enzymatic assay (LanthaScreen TR-FRET). The class given is biochemical. The settings on record: recombinant his-tagged catalytic domain (aa 473-894), 18 μM ATP (around Km), 200 nM Poly GT substrate, 1 h reaction. Here is the method:
Example 3: AXL Enzymatic Assay
Compounds were tested in a LanthaScreen™ time-resolved fluorescence energy transfer (TR-FRET) enzymatic assay from Invitrogen. The assay used human AXL (Invitrogen, Cat. PV3971) recombinantly expressed his-tagged catalytic domain (amino acids 473-894) from insect cells. The substrate was fluorescein-labeled Poly GT (Invitrogen, Cat. PV3610). Test compounds were prepared and diluted in DMSO in 3-fold serial dilutions to 100× of the final testing concentrations. The compounds were then further diluted to 4× by the kinase reaction buffer (Invitrogen, Cat. PV3189). The enzymatic reaction for compound testing was performed in a white 384-well polypropylene plate (Packard, Cat. 6005214) with a total reaction volume of 10 μl containing 200 ng/ml AXL, 200 nM substrate, and 18 μM ATP that is around its Km. The assay started with loading 2.5 μl of AXL diluted in kinase reaction buffer to wells, followed by addition of equal volume of 4× compounds for 15-min incubation at the room temperature for pre-treatment. The enzymatic reaction was initiated by addition of 5 μl of mixture of the substrate and ATP prepared in kinase reaction buffer. After one hour reaction, 10 μl mixture of EDTA (final 10 mM) and terbium-labeled anti-PY20 antibody (final 2 nM) (Invitrogen, Cat. PV3552) prepared in TR-FRET antibody dilution buffer (Invitrogen, Cat. PV3574) was added to stop the enzymatic reaction and produce TR-FRET signals. After 30 minutes of incubation at room temperature, the plate was read in Tecan Infinite F200 Pro with the following settings: Excitation 340 nm (30)/Emission1 495 nm (10)/Emission2 520 nm (25). The TR-FRET values were dimensionless numbers that were calculated as the ratio of the acceptor ([…]) signal to the donor (Terbium) signal. Percent of control was calculated as the percentage of compound-treated vs 1% DMSO vehicle-treated. The dose-response curves were generated and the IC50s were calculated by nonlinear sigmoid curve fitting using GraphPad Prism.
In general terms: Time-resolved FRET reads energy transfer from a long-lived donor to a nearby acceptor.
Regarding `CC(C)Oc1ccccc1-n1ccc2cnc(Nc3ccc4c(c3)CCC(N3CCCC3)CC4)nc21` (stereo not drawn) [Compound 1, 7-(2-isopropoxyphenyl)-N-(7-(pyrrolidin-1-yl)-6,7,8,9-tetrahydro-5H-benzo[7]annulen-2-yl)-7H-pyrrolo[2,3-d]pyrimidin-2-amine], the pIC50 is 7.30 to 7.60.

Consider `CC(C)Oc1ccccc1-n1ccc2cnc(Nc3cnn(C4CCN(C)CC4)c3)nc21` [Compound 2, 7-(2-isopropoxyphenyl)-N-(1-(1-methylpiperidin-4-yl)-1H-pyrazol-4-yl)-7H-pyrrolo[2,3-d]pyrimidin-2-amine], for which the pIC50 is 6.10 to 6.15.

With `CC(C)Oc1cccc(-n2ccc3cnc(Nc4ccc5c(c4)CCC(N4CCCC4)CC5)nc32)c1` (stereo not drawn) [Compound 3, 7-(3-isopropoxyphenyl)-N-(7-(pyrrolidin-1-yl)-6,7,8,9-tetrahydro-5H-benzo[7]annulen-2-yl)-7H-pyrrolo[2,3-d]pyrimidin-2-amine], the pIC50 is 6.70 to 7.30.

For the compound `c1ccc(-n2ccc3cnc(Nc4ccc5c(c4)CCC(N4CCCC4)CC5)nc32)c(OC2CCCCC2)c1` (stereo not drawn) [Compound 4, 7-(2-(cyclohexyloxy)phenyl)-N-(7-(pyrrolidin-1-yl)-6,7,8,9-tetrahydro-5H-benzo[7]annulen-2-yl)-7H-pyrrolo[2,3-d]pyrimidin-2-amine], the pIC50 is 6.40 to 6.70.

Turning to `c1ccc(Oc2ccccc2-n2ccc3cnc(Nc4ccc5c(c4)CCC(N4CCCC4)CC5)nc32)cc1` (stereo not drawn) [Compound 5, 7-(2-phenoxyphenyl)-N-(7-(pyrrolidin-1-yl)-6,7,8,9-tetrahydro-5H-benzo[7]annulen-2-yl)-7H-pyrrolo[2,3-d]pyrimidin-2-amine], the pIC50 is 6.10 to 6.15.

As for `Cc1ccccc1Oc1ccccc1-n1ccc2cnc(Nc3ccc4c(c3)CCC(N3CCCC3)CC4)nc21` (stereo not drawn) [Compound 6, N-(7-(pyrrolidin-1-yl)-6,7,8,9-tetrahydro-5H-benzo[7]annulen-2-yl)-7-(2-(o-tolyloxy)phenyl)-7H-pyrrolo[2,3-d]pyrimidin-2-amine], the pIC50 was greater than 7.60.

Take `CC(C)Oc1ccc(-n2ccc3cnc(Nc4ccc5c(c4)CCC(N4CCCC4)CC5)nc32)cc1` (stereo not drawn) [Compound 7, 7-(4-isopropoxyphenyl)-N-(7-(pyrrolidin-1-yl)-6,7,8,9-tetrahydro-5H-benzo[7]annulen-2-yl)-7H-pyrrolo[2,3-d]pyrimidin-2-amine]: the pIC50 is 7.30 to 7.60.

For the compound `c1ccc(-c2ccc(-n3ccc4cnc(Nc5ccc6c(c5)CCC(N5CCCC5)CC6)nc43)cc2)cc1` (stereo not drawn) [Compound 8, 7-([1,1′-biphenyl]-4-yl)-N-(7-(pyrrolidin-1-yl)-6,7,8,9-tetrahydro-5H-benzo[7]annulen-2-yl)-7H-pyrrolo[2,3-d]pyrimidin-2-amine], the pIC50 was less than 6.00.

Regarding `COc1ccc(-n2ccc3cnc(Nc4ccc5c(c4)CCC(N4CCCC4)CC5)nc32)c(OC(C)C)c1` (stereo not drawn) [Compound 9, 7-(2-isopropoxy-4-methoxyphenyl)-N-(7-(pyrrolidin-1-yl)-6,7,8,9-tetrahydro-5H-benzo[7]annulen-2-yl)-7H-pyrrolo[2,3-d]pyrimidin-2-amine], the pIC50 was 6.70 to 7.30.

For `CC(C)Oc1cc(Cl)ccc1-n1ccc2cnc(Nc3ccc4c(c3)CCC(N3CCCC3)CC4)nc21` (stereo not drawn) [Compound 10, 7-(4-chloro-2-isopropoxyphenyl)-N-(7-(pyrrolidin-1-yl)-6,7,8,9-tetrahydro-5H-benzo[7]annulen-2-yl)-7H-pyrrolo[2,3-d]pyrimidin-2-amine], the pIC50 was greater than 7.60.

On to `CC(C)NC(=O)c1ccccc1-n1ccc2cnc(Nc3ccc4c(c3)CCC(N3CCCC3)CC4)nc21` (stereo not drawn) [Compound 11, N-isopropyl-2-(2-((7-(pyrrolidin-1-yl)-6,7,8,9-tetrahydro-5H-benzo[7]annulen-2-yl)amino)-7H-pyrrolo[2,3-d]pyrimidin-7-yl)benzamide], for which the pIC50 is less than 6.00.

On to `Cc1ccccc1-c1ccc(-n2ccc3cnc(Nc4ccc5c(c4)CCC(N4CCCC4)CC5)nc32)cc1` (stereo not drawn) [Compound 12, 7-(2′-methyl-[1,1′-biphenyl]-4-yl)-N-(7-(pyrrolidin-1-yl)-6,7,8,9-tetrahydro-5H-benzo[7]annulen-2-yl)-7H-pyrrolo[2,3-d]pyrimidin-2-amine], for which the pIC50 is 7.30 to 7.60.

For the compound `CC(C)Oc1cccnc1-n1ccc2cnc(Nc3ccc4c(c3)CCC(N3CCCC3)CC4)nc21` (stereo not drawn) [Compound 13, 7-(3-isopropoxypyridin-2-yl)-N-(7-(pyrrolidin-1-yl)-6,7,8,9-tetrahydro-5H-benzo[7]annulen-2-yl)-7H-pyrrolo[2,3-d]pyrimidin-2-amine], the pIC50 is 6.40 to 6.70.

As for `CC(C)Oc1cc(-c2ccccc2)ccc1-n1ccc2cnc(Nc3ccc4c(c3)CCC(N3CCCC3)CC4)nc21` (stereo not drawn) [Compound 14, 7-(3-isopropoxy-[1,1′-biphenyl]-4-yl)-N-(7-(pyrrolidin-1-yl)-6,7,8,9-tetrahydro-5H-benzo[7]annulen-2-yl)-7H-pyrrolo[2,3-d]pyrimidin-2-amine], the pIC50 was 6.40 to 6.70.

For the compound `CC(C)Oc1ccccc1-n1ccc2cnc(Nc3ccc4c(c3)CCN(C)CC4)nc21` [Compound 15, N-(7-(2-isopropoxyphenyl)-7H-pyrrolo[2,3-d]pyrimidin-2-yl)-3-methyl-2,3,4,5-tetrahydro-1H-benzo[d]azepin-7-amine], the pIC50 was 6.40 to 6.70.
